Data taken from patent publication US8598314B2 (priority 2007, dated 2013).
One block for each molecule: values may come before it.

Assays:
[1] = target: T1, human GIP receptor (HEK-GIPR) (Homo sapiens, UniProt P48546); experiment: GIP receptor binding (RBA) displacement assay; settings: for inhibition at 0.01 µM: read-out: GIP RBA % inhibition at 10 nM
T1 construct: expressed in transfected cells
T1 sequence (P48546 22-466): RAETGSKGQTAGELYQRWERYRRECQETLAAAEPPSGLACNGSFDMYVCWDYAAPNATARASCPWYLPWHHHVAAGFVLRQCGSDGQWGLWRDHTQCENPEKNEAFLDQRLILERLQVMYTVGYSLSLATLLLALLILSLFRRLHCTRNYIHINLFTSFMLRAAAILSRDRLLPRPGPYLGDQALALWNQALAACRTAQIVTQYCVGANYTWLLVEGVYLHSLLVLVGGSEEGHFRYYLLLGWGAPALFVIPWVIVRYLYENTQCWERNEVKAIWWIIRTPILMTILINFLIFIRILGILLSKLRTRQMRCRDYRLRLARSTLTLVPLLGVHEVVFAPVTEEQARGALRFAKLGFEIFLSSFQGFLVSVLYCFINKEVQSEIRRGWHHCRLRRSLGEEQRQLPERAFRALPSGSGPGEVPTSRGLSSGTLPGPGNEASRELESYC
Experimental: Membrane fractions were prepared from confluent cell cultures of HEK-GIPR, snap frozen, and stored at −80° C. until use. […] Reactions were allowed to proceed to equilibrium for 90 minutes at room temperature with constant shaking. The reaction mixtures were then filtered through 96-well glass fiber filter plates separating bound and unbound fractions of radioligand.

[2] = system: NIH/Swiss mice; experiment: Oral glucose tolerance test (OGTT), glucose lowering; format: in vivo; settings: 30 nM/kg, blood glucose
Experimental: . Test compounds were injected IP (t=0 min) immediately following baseline measurements of 2 hour fasted NIH/Swiss mice. Blood samples were taken at 60, 120, and 180 minutes after injection. In some assays, samples were also taken at 240 minutes after the injection. Blood glucose was measured with a One-Touch® Ultra® glucose meter (LifeScan, Inc., Milpitas, Calif.). […].
The tests were performed as described in Example 5.

Molecule: CC[C@H](C)[C@H](NC(=O)[C@H](CO)NC(=O)[C@H](Cc1ccc(O)cc1)NC(=O)[C@H](CC(=O)O)NC(=O)[C@H](CO)NC(=O)[C@@H](NC(=O)[C@H](Cc1ccccc1)NC(=O)[C@@H](NC(=O)CNC(=O)[C@H](CCC(=O)O)NC(=O)[C@H](C)NC(=O)[C@H](Cc1ccc(O)cc1)NC(=O)COCCOCCNC(=O)COCCOCCNC(=O)CC[C@H](N)C(=O)N1CCC[C@H]1C#N)[C@@H](C)O)[C@@H](C)CC)C(=O)N[C@@H](C)C(=O)N[C@@H](CCSC)C(=O)N[C@@H](CC(=O)O)C(=O)N[C@@H](CCCCN)C(=O)N[C@H](C(=O)N[C@@H](Cc1c[nH]cn1)C(=O)N[C@@H](CCC(N)=O)C(=O)N[C@@H](CCC(N)=O)C(=O)N[C@@H](CC(=O)O)C(=O)N[C@@H](Cc1ccccc1)C(=O)N[C@H](C(=O)N[C@@H](CC(N)=O)C(=O)N[C@@H](Cc1c[nH]c2ccccc12)C(=O)N[C@@H](CC(C)C)C(=O)N[C@@H](CC(C)C)C(=O)N[C@@H](C)C(=O)N[C@@H](CCC(N)=O)C(=O)NC(CCCCN)C(N)=O)C(C)C)[C@@H](C)CC (stereo partly drawn) [N-(γ-L-Glu-2-(S)-cyanopyrrolidyl)-Ado-Ado) GIP(1-30)]
inhibition at 0.01 µM [1]: 32%

Molecule: CC[C@H](C)[C@H](NC(=O)[C@H](CO)NC(=O)[C@H](Cc1ccc(O)cc1)NC(=O)[C@H](CC(=O)O)NC(=O)[C@H](CO)NC(=O)[C@@H](NC(=O)[C@H](Cc1ccccc1)NC(=O)[C@@H](NC(=O)CNC(=O)[C@H](CCC(=O)O)NC(=O)[C@@H](C)NC(=O)[C@@H](N)Cc1ccc(O)cc1)[C@@H](C)O)[C@@H](C)CC)C(=O)N[C@@H](C)C(=O)N[C@@H](CC(C)C)C(=O)N[C@@H](CC(=O)O)C(=O)N[C@@H](CCCCN)C(=O)N[C@H](C(=O)N[C@@H](Cc1c[nH]cn1)C(=O)N[C@@H](CCC(N)=O)C(=O)N[C@@H](CCC(N)=O)C(=O)N[C@@H](CC(=O)O)C(=O)N[C@@H](Cc1ccccc1)C(=O)N[C@H](C(=O)N[C@@H](CC(N)=O)C(=O)N[C@@H](Cc1c[nH]c2ccccc12)C(=O)N[C@@H](CC(C)C)C(=O)N[C@@H](CC(C)C)C(=O)N[C@@H](C)C(=O)N[C@@H](CCC(N)=O)C(=O)N[C@@H](CCCCN)C(=O)NCCC(=O)NCCC(=O)NCCCC[C@H](NC(=O)[C@@H]1CCC(=O)N1)C(=O)N[C@@H](Cc1c[nH]c2ccccc12)C(=O)N[C@@H](C)C(=O)N1CCC[C@H]1C(=O)O)C(C)C)[C@@H](C)CC [[^2D-Ala,^14Leu] GIP-(1-30)-β-Ala-β-Ala-Lys(α-NH-Pyroglutamoyl)-Trp-Ala-Pro-COOH]
inhibition at 0.01 µM [1]: 66%

Molecule: CC[C@H](C)[C@H](NC(=O)[C@H](CO)NC(=O)[C@H](Cc1ccc(O)cc1)NC(=O)[C@H](CC(=O)O)NC(=O)[C@H](CO)NC(=O)[C@@H](NC(=O)[C@H](Cc1ccccc1)NC(=O)[C@@H](NC(=O)CNC(=O)[C@H](CCC(=O)O)NC(=O)[C@@H](C)NC(=O)[C@@H](N)Cc1ccc(O)cc1)[C@@H](C)O)[C@@H](C)CC)C(=O)N[C@@H](C)C(=O)N[C@@H](CCSC)C(=O)N[C@@H](CC(=O)O)C(=O)N[C@@H](CCCCN)C(=O)N[C@H](C(=O)N[C@@H](Cc1c[nH]cn1)C(=O)N[C@@H](CCC(N)=O)C(=O)N[C@@H](CCC(N)=O)C(=O)N[C@@H](CC(=O)O)C(=O)N[C@@H](Cc1ccccc1)C(=O)N[C@H](C(=O)N[C@@H](CC(N)=O)C(=O)N[C@@H](Cc1c[nH]c2ccccc12)C(=O)N[C@@H](CC(C)C)C(=O)N[C@@H](CC(C)C)C(=O)N[C@@H](C)C(=O)N[C@@H](CCC(N)=O)C(=O)N[C@@H](CCCCN)C(=O)NCCOCCOCC(=O)NCCOCCOCC(=O)NCCCCCCCCCCC(=O)NCCC(=O)NCCC(=O)NCCCC[C@H](NC(=O)[C@@H]1CCC(=O)N1)C(=O)N[C@@H](Cc1c[nH]c2ccccc12)C(=O)N[C@@H](C)C(=O)N1CCC[C@H]1C(=O)O)C(C)C)[C@@H](C)CC [[^2D-Ala]GIP-(1-30)-Ado-Ado-Aun-βAla-βAla-ε-NH-Lys(α-NH-Pyroglutamoyl)-Trp-Ala-Pro]
inhibition at 0.01 µM [1]: 70%

Molecule: CC[C@H](C)[C@H](NC(=O)[C@H](CO)NC(=O)[C@H](Cc1ccc(O)cc1)NC(=O)[C@H](CC(=O)O)NC(=O)[C@H](CO)NC(=O)[C@@H](NC(=O)[C@H](Cc1ccccc1)NC(=O)[C@@H](NC(=O)CNC(=O)[C@H](CCC(=O)O)NC(=O)[C@@H](C)NC(=O)[C@@H](N)Cc1ccc(O)cc1)[C@@H](C)O)[C@@H](C)CC)C(=O)N[C@@H](C)C(=O)N[C@@H](CC(C)C)C(=O)N[C@@H](CC(=O)O)C(=O)N[C@@H](CCCCN)C(=O)N[C@H](C(=O)N[C@@H](Cc1c[nH]cn1)C(=O)N[C@@H](CCC(N)=O)C(=O)N[C@@H](CCC(N)=O)C(=O)N[C@@H](CC(=O)O)C(=O)N[C@@H](Cc1ccccc1)C(=O)N[C@H](C(=O)N[C@@H](CC(N)=O)C(=O)N[C@@H](Cc1c[nH]c2ccccc12)C(=O)N[C@@H](CC(C)C)C(=O)N[C@@H](CC(C)C)C(=O)N[C@@H](C)C(=O)N[C@@H](CCC(N)=O)C(=O)N[C@@H](CCCCN)C(=O)N1CCC[C@H]1C(=O)N[C@@H](CO)C(=O)N[C@@H](CO)C(=O)NCC(=O)N[C@@H](C)C(=O)N1CCC[C@H]1C(=O)N1CCC[C@H]1C(=O)N1CCC[C@H]1C(=O)N[C@@H](CO)C(=O)NCCOCCOCC(=O)NCCOCCOCC(=O)NCCCCCCCCCCC(=O)NCCC(=O)NCCC(=O)NCCCC[C@H](NC(=O)[C@@H]1CCC(=O)N1)C(=O)N[C@@H](Cc1c[nH]c2ccccc12)C(=O)N[C@@H](C)C(=O)N1CCC[C@H]1C(=O)O)C(C)C)[C@@H](C)CC [[^2D-Ala^14Leu] GIP(1-30)-exendin-4(31-39)-Ado-Ado-Aun-βAla-βAla-ε-NH-Lys(α-NH-Pyroglutamoyl)-Trp-Ala-Pro]
inhibition at 0.01 µM [1]: 86%

GIP RBA % inhibition at 10 nM ([1]; 10 nM conjugate, 30 pM 125I-GIP, relative to human GIP (100%)): 99%
Molecule: [^14Leu] GIP(1-30)-exendin-4(31-39)-Ado-Lys-N-ε-(2-(S)-cyano pyrrolidyl)
OGTT (30 nM/kg) % maximal decrease [2]: −24%
